Laboratory results published in US20240000872A1, “NOVEL BACTERIOPHAGE THAT LYSES ACINETOBACTER GENUS BACTERIA HAVING RESISTANCE TO ANTIBIOTICS” (priority 2020, published 2024).

Test system: Acinetobacter baumannii strains
Test: Antibiotic susceptibility test (CLSI disk diffusion test method, read per CLSI 2016); also: key: ‘S’ means susceptible; ‘I’ means intermediate; ‘R’ means resistant
Assay type: cell-based

Question: What does the source list for CC(C)(O/N=C(\C(=O)N[C@@H]1C(=O)N2C(C(=O)[O-])=C(C[n+]3ccccc3)CS[C@H]12)c1csc(N)n1)C(=O)O [Ceftazidime, ceftazidime]?
Answer: antibiotic susceptibility class (host strain YMC14/01/C29): R; antibiotic susceptibility class (host strain YMC14/01/IP122): R; antibiotic susceptibility class (host strain YMC14/01/L8): R; antibiotic susceptibility class (host strain YMC14/01/P31): R; antibiotic susceptibility class (host strain YMC14/01/P117): R; antibiotic susceptibility class (host strain YMC14/01/P224): R; antibiotic susceptibility class (host strain YMC14/01/P727): R; antibiotic susceptibility class (host strain YMC14/01/P728): R; antibiotic susceptibility class (host strain YMC14/01/R130): R; antibiotic susceptibility class (host strain YMC14/01/R160): R; antibiotic susceptibility class (host strain YMC14/01/R198): R; antibiotic susceptibility class (host strain YMC14/01/R257): R; antibiotic susceptibility class (host strain YMC14/01/R270): R; antibiotic susceptibility class (host strain YMC14/01/R324): R; antibiotic susceptibility class (host strain YMC14/01/R443): R; antibiotic susceptibility class (host strain YMC14/01/R451): R; antibiotic susceptibility class (host strain YMC14/01/R560): R; antibiotic susceptibility class (host strain YMC14/01/R617): I; antibiotic susceptibility class (host strain YMC14/01/R671): R; antibiotic susceptibility class (host strain YMC14/01/R732): R; antibiotic susceptibility class (host strain YMC14/01/R767): R; antibiotic susceptibility class (host strain YMC14/01/R904): R; antibiotic susceptibility class (host strain YMC14/01/R905): R; antibiotic susceptibility class (host strain YMC14/01/R921): R; antibiotic susceptibility class (host strain YMC14/01/R941): R; antibiotic susceptibility class (host strain YMC14/01/R958): R; antibiotic susceptibility class (host strain YMC14/01/R1006): R; antibiotic susceptibility class (host strain YMC14/01/R1199): R; antibiotic susceptibility class (host strain YMC14/01/R1659): R; antibiotic susceptibility class (host strain YMC14/01/R1722): R; antibiotic susceptibility class (host strain YMC14/01/R1752): R; antibiotic susceptibility class (host strain YMC14/01/R2429): R; antibiotic susceptibility class (host strain YMC14/01/R2572): R; antibiotic susceptibility class (host strain YMC14/01/R2855): R; antibiotic susceptibility class (host strain YMC14/01/R2945): R; antibiotic susceptibility class (host strain YMC14/01/R3007): R; antibiotic susceptibility class (host strain YMC14/01/R3129): R; antibiotic susceptibility class (host strain YMC14/01/R3317): R; antibiotic susceptibility class (host strain YMC14/01/R3474): R; antibiotic susceptibility class (host strain YMC14/01/R3574): R; antibiotic susceptibility class (host strain YMC14/01/U313): R; antibiotic susceptibility class (host strain YMC14/01/U318): R; antibiotic susceptibility class (host strain YMC14/02/L18): R; antibiotic susceptibility class (host strain YMC14/02/P47): R; antibiotic susceptibility class (host strain YMC14/02/R1860): R; antibiotic susceptibility class (host strain YMC14/02/R2417): R; antibiotic susceptibility class (host strain YMC14/02/R2599): R; antibiotic susceptibility class (host strain YMC14/02/R2668): R; antibiotic susceptibility class (host strain YMC14/02/R2758): R; antibiotic susceptibility class (host strain YMC14/02/R2781): R; antibiotic susceptibility class (host strain YMC14/02/R3106): R; antibiotic susceptibility class (host strain YMC14/02/R3419): R; antibiotic susceptibility class (host strain YMC14/02/U1607): R; antibiotic susceptibility class (host strain YMC14/03/L9): R; antibiotic susceptibility class (host strain YMC14/03/P471): R; antibiotic susceptibility class (host strain YMC14/03/R122): R; antibiotic susceptibility class (host strain YMC14/03/R217): R; antibiotic susceptibility class (host strain YMC14/03/R380): R; antibiotic susceptibility class (host strain YMC14/03/R618): R; antibiotic susceptibility class (host strain YMC14/03/R2144): R; antibiotic susceptibility class (host strain YMC14/03/U4616): R; antibiotic susceptibility class (host strain YMC14/04/R1078): R; antibiotic susceptibility class (host strain YMC14/04/R1080): R; antibiotic susceptibility S/I/R (host strain YMC14/06/R2359): R; susceptibility category (S/I/R) (host strain YMC14/06/R2359): R; antibiotic susceptibility S/I/R (host strain YMC14/08/R1169): R; susceptibility category (S/I/R) (host strain YMC14/08/R1169): R; antibiotic susceptibility S/I/R (host strain YMC14/08/T90): R; susceptibility category (S/I/R) (host strain YMC14/08/T90): R; antibiotic susceptibility S/I/R (host strain YMC15/02/R436): R; susceptibility category (S/I/R) (host strain YMC15/02/R436): R; antibiotic susceptibility S/I/R (host strain YMC15/02/T28): R; susceptibility category (S/I/R) (host strain YMC15/02/T28): R; antibiotic susceptibility S/I/R (host strain YMC15/03/R1604): R; susceptibility category (S/I/R) (host strain YMC15/03/R1604): R; antibiotic susceptibility S/I/R (host strain YMC15/09/R1869): R; susceptibility category (S/I/R) (host strain YMC15/09/R1869): R; antibiotic susceptibility S/I/R (host strain YMC16/01/P11): R; susceptibility category (S/I/R) (host strain YMC16/01/P11): R; antibiotic susceptibility S/I/R (host strain YMC16/01/R123): R; susceptibility category (S/I/R) (host strain YMC16/01/R123): R; antibiotic susceptibility S/I/R (host strain YMC16/01/R198): R; susceptibility category (S/I/R) (host strain YMC16/01/R198): R
